Data on two compounds can be found in US6420412B2, “Eprosartan dihydate and a process for its production and formulation” (SmithKline Beecham Corporation, priority 1996, dated 2002).

Holding throughout (format): physicochemical
Data set [1] is described as follows: Storage stability of the drug substance. The procedure: (§1) Eprosartan is anhydrous, and, by itself, is stable at ambient temperature and humidity, as well as at accelerated conditions (30° C./79% RH or 40° C./75% RH for up to 6 months). […] In the former case where the hydrate is obtained by moistening the drug substance, the hydrated form is not stable, and is generally converted back into the anhydrous form during drying.

A short description of data set [2]: Compactibility in the solid dosage form. Conditions: compared to the corresponding anhydrous form.
A short description of data set [3]: Moisture uptake and hydrate conversion on storage at high humidity. The procedure:
as §1

In the case of `CCCCc1ncc(/C=C(\Cc2cccs2)C(=O)O)n1Cc1ccc(C(=O)O)cc1.CS(=O)(=O)O.O.O` [dihydrate, (E)-α-[2-n-butyl-1-[(4-carboxyphenyl)methyl]-1H-imidazol-5-yl]methylene-2-thiophenepropionic acid monomethanesulfonate dihydrate], the “stability of hydrate obtained by moistening the drug substance” value in data set [1] (no excipient, during drying generally converted back into the anhydrous form) was “not stable”. The “compactibility in the solid dosage form” value in data set [2] is listed as “more compactible”.
Take `CCCCc1ncc(/C=C(\Cc2cccs2)C(=O)O)n1Cc1ccc(C(=O)O)cc1` [Eprosartan, (E)-α-[2-n-butyl-1-[(4-carboxyphenyl)methyl]-1H-imidazol-5-yl]methylene-2-thiophenepropionic acid monomethanesulfonate]: the “stability at accelerated conditions” value in data set [1] (30° C./79% RH or 40° C./75% RH for up to 6 months) was “stable”. In data set [1] (drug substance by itself, ambient temperature and humidity), the stability result was “stable”. For the same compound, in data set [3] (moistened then stored in closed container, or dry powder at relative humidity of 98% or higher, ambient or higher temperatures, 8 days or longer), the “conversion of solid form on storage” value is given as “converts to the hydrated form”. Also, in data set [3] (typically up to 95% RH), the “moisture pick-up at higher humidities” value was “does not pick up moisture”.
